Source: the NIST ThermoML archive (doi:10.1021/acs.jced.7b00503)

Conditions: Pendant drop shape

O [water]
Conditions | surface tension liquid-gas [mN/m]
293.15 K | 72.75
298.15 K | 71.97
303.15 K | 71.15
313.15 K | 69.55
323.15 K | 67.9
333.15 K | 66.17
343.15 K | 64.39
353.15 K | 62.61
